Structures can show the parent of a compound that is named as a salt.
Row | SMILES | melting point [°C]
1 | CN1CCC(Sc2ccc(N)cc2)CC1 (as salt: hydrochloride) [Example 5, 4-(1-methylpiperidin-4-yl)thiophenylamine] | 96 to 98
2 | CN1CCC(Sc2ccc3[nH]c(=O)n(C)c(=O)c3c2)CC1 [Example 21, 3-Methyl-6-[(1-methyl-4-piperidinyl)sulfanyl]-2,4(1H,3H)-quinazolinedione] | 200.8 to 202.6
3 | CN1CCC(Sc2ccc3[nH]c(=O)[nH]c(=O)c3c2)CC1 [Example 17, 6-[(1-methyl-4-piperidinyl)sulfanyl]-2,4(1H,3H)-quinazolinedione] | > 260
4 | CC(=O)Nc1ccc(SC2CCN(C)CC2)cc1 (as salt: salt) [Example 7, N-{4-[(1-methylpiperidin-4-yl)thio]phenyl}acetamide] | 199 to 201

Further lines, results first:

Row | melting point [°C] | SMILES
5 | 196.4 to 197.6 | CN1CCC(Sc2ccc3[nH]c(=O)n(C)c3c2)CC1 [Example 18, 1-Methyl-6-[(1-methyl-4-piperidinyl)sulfanyl]-1,3-dihydro-2H-benzimidazol-2-one]
6 | 213.8 to 214.7 | CN1CCC(Sc2ccc3[nH]c(=O)[nH]c3c2)CC1 [Example 16, 5-[(1-methyl-4-piperidinyl)sulfanyl]-1,3-dihydro-2H-benzimidazol-2-one]
7 | 210.2 to 211.9 | CN1CCC(Sc2cc3c(cc2Cl)[nH]c(=O)n3C)CC1 [Example 20, 5-Chloro-1-methyl-6-[(1-methyl-4-piperidinyl)sulfanyl]-1,3-dihydro-2H-benzimidazol-2-one]
